Experiment: Stability of oligonucleotides in anhydrous TFA simulating Edman peptide cleavage conditions (HPLC)
Type: physicochemical
Settings: 1 hr in anhydrous TFA (DMSO/TFA, 45 deg C), FIG. 40
Procedure: A deprotected 15mer DNA oligonucleotide (CCTGTTGTCAATGAG, Sys #003, LO1) (SEQ ID NO: 126) was obtained from Integrated DNA Technologies. Cleavage, deprotection, and desalting were performed by IDT using their standard process. It was resuspended in Mol Bio grade H2O at 160 μM and a 40 μL aliquot was dried (Eppindorf, Vacufuge+, 45° C. for ˜2 hrs) prior to subjecting to Edman cleavage chemistry. The deprotected oligonucleotide material used for the baseline measurement was resuspended as above, but not dried.
A protected DNA oligonucleotide (5Phos/ATGAGTG/iFormInd/AGGGAAATAGCTTCTGGT CGAACTAGTTGTTCGTCAA/idSp/TTTCTTT, Sys #001, SOCAB) (SEQ ID NO: 125) was liberated from CPG support using EndoIV (NEB, M0304) and desalted (Zymo) to provide five 60 μL aliquots at 70 μM of/5Phos/ATGAGTG/iFormInd/[…] (SEQ ID NO: 75), which were dried as described above. The protected oligonucleotide material used for the baseline measurement was desalted as above, but not dried.
In anhydrous environment 40 μL of DMSO was added to each dried aliquot. Following disolution 40 μL TFA was added to each. Solutions were incubated at 45 deg C. for 0 mins, 30 mins, 60 mins, 4 hrs, and overnight. Samples were neutralized by addition of 228 μL of 4.1M imidazole solution at the conclusion of their incubation period. HPLC chromatograms were collected for each sample.

protected oligos: protected DNA oligonucleotide liberated from CPG support, /5Phos/ATGAGTG/iFormInd/AGGGAAATAGCTTCTGGTCGAACTAGTTGTTCGTCAA (SEQ ID NO: 75) (DNA ATGAGTGNAGGGAAATAGCTTCTGGTCGAACTAGTTGTTCGTCAA; 5' phosphate, internal formylindole, protecting groups; modified_base 1 OTHER; 5' phosphorylated nucleotide; modified_base 8 OTHER; Formylindole modified nucleotide)
HPLC peak after exposure to anhydrous TFA: largely unchanged

— patent US12474347B2, “Determination of protein information by recoding amino acid polymers into DNA polymers” (ABRUS BIO, INC., priority 2022, dated 2025)
